{"source": "BindingDB's records for PubMed 30559935", "about": "(University of Nottingham)", "key": {"[1]": {"assay": "Inhibition of EZH2 in human BXD-1425EPN cells assessed as reduction in cell viability incubated for 120 hrs by MTT assay"}, "[2]": {"assay": "Inhibition of EZH2 in human DKFZ-EP1 cells assessed as reduction in cell viability incubated for 120 hrs by MTT assay"}, "[3]": {"assay": "Inhibition of EZH2 in human EPN8 cells assessed as reduction in cell viability incubated for 120 hrs by MTT assay"}}}
{"smiles": "CCCc1cc(C)[nH]c(=O)c1CNC(=O)c1cc(-c2ccnc(N3CCN(C)CC3)c2)cc2c1cnn2C(C)C", "values": [{"measurement": "IC50", "setting": "[1]", "value": 16, "unit": "µM"}, {"measurement": "IC50", "setting": "[2]", "value": 20, "unit": "µM"}, {"measurement": "IC50", "setting": "[3]", "value": 20, "unit": "µM"}]}
